Results on twelve compounds are retold here after ChEMBL document CHEMBL4130638, “Discovery of the Polyamine Conjugate with Benzo[ cd]indol-2(1 H)-one as a Lysosome-Targeted Antimetastatic Agent” (J Med Chem, 2018).

Active and inactive are the calls of the source. The calls are words filed in the database; no cut-off is given here.

Series [1] relates to HCT-116. Kind of series: Growth inhibition of human HCT116 cells after 48 hrs by MTT assay. Format: functional, cell-based. To be noted: HCT-116, 48 h.
In another series the test system is K562. Kind of series: Growth inhibition of human K562 cells after 48 hrs by MTT assay. In kind it is functional, cell-based. To be noted: K562, 48 h.
Another series relates to HepG2. Nature of the series: Growth inhibition of human HepG2 cells after 48 hrs by MTT assay. Format: functional, cell-based. Conditions: HepG2, 48 h.
A further series concerns SMMC-7721. Nature of the series: Growth inhibition of human SMMC7721 cells after 48 hrs by MTT assay. Conditions: SMMC-7721, 48 h. Format: functional, cell-based.
Series [2] has as its system HCT-116. Nature of the series: Growth inhibition of human HCT116 cells after 24 hrs by MTT assay. Format: functional, cell-based.
For series [3], the system named is CT26. Kind of series: Growth inhibition of mouse CT26 cells after 24 hrs by MTT assay. Format: functional, cell-based.
In series [4] the test system is HCT-116. Nature of the series: Antimigratory activity against human HCT116 cells at 10 uM after 24 hrs by crystal violet staining based transwell assay. In kind it is functional, cell-based.
Series [5] concerns CT26. Nature of the series: Antimigratory activity against mouse CT26 cells at 10 uM after 24 hrs by crystal violet staining based transwell assay. Format: functional, cell-based.
The test system of series [6] is CT26. Nature of the series: Antimetastatic activity against mouse CT26 cells implanted in Balb/c mouse assessed as inhibition of pulmonary metastasis nodules at 5 mg/kg, iv for 7 consecutive days starting from day 8 post tumor implantation measured on day 15 post tumor implantation relative to control. In kind it is functional.
The test system of series [7] is CT26. Kind of series: Antitumor activity against mouse CT26 cells implanted in Balb/c mouse assessed as solid tumor growth inhibition at 5 mg/kg, iv for 14 consecutive days measured on day 15 relative to control. Format: functional. To be noted: 360 h, read-out: TGI.
The subject of series [8] is Mus musculus. Nature of the series: Toxicity in Balb/c mouse implanted with mouse CT26 cells assessed as changes in body weight at 5 mg/kg, iv for 7 consecutive days starting from day 8 post tumor implantation. To be noted: in vivo. Format: organism-based.
Series [9] has as its system Mus musculus. Nature of the series: Toxicity in Balb/c mouse implanted with mouse CT26 cells assessed as changes in body weight at 5 mg/kg, iv for 14 consecutive days starting from day 8 post tumor implantation. Conditions: in vivo. In kind it is organism-based.
Series [10] concerns HCT-116. Kind of series: Induction of apoptosis in human HCT116 cells assessed as live cells at 10 uM after 24 hrs by annexin V-FITC/propidium iodide staining based flow cytometry (reference value: 89.97%). Format: functional.
The test system of series [11] is HCT-116. Nature of the series: Induction of apoptosis in human HCT116 cells assessed as early apoptotic cells at 10 uM after 24 hrs by annexin V-FITC/propidium iodide staining based flow cytometry (reference value: 4.1%). In kind it is functional.
Series [12] concerns HCT-116. Kind of series: Induction of apoptosis in human HCT116 cells assessed as late apoptotic cells at 10 uM after 24 hrs by annexin V-FITC/propidium iodide staining based flow cytometry (reference value: 2.03%). Format: functional.
Series [13] has as its system HCT-116. Kind of series: Induction of apoptosis in human HCT116 cells assessed as necrotic cells at 10 uM after 24 hrs by annexin V-FITC/propidium iodide staining based flow cytometry (reference value: 3.9%). In kind it is functional.
The test system of series [14] is CT26. Nature of the series: Induction of apoptosis in mouse CT26 cells assessed as live cells at 10 uM after 24 hrs by annexin V-FITC/propidium iodide staining based flow cytometry (reference value: 89.47%). In kind it is functional.
For series [15], the system named is CT26. Nature of the series: Induction of apoptosis in mouse CT26 cells assessed as early apoptotic cells at 10 uM after 24 hrs by annexin V-FITC/propidium iodide staining based flow cytometry (reference value: 3.91%). Format: functional.
Series [16] concerns CT26. Nature of the series: Induction of apoptosis in mouse CT26 cells assessed as late apoptotic cells at 10 uM after 24 hrs by annexin V-FITC/propidium iodide staining based flow cytometry (reference value: 2.26%). Format: functional.
Series [17] concerns CT26. Nature of the series: Induction of apoptosis in mouse CT26 cells assessed as necrotic cells at 10 uM after 24 hrs by annexin V-FITC/propidium iodide staining based flow cytometry (reference value: 4.36%). In kind it is functional.
Series [18] has as its system HCT-116. Kind of series: Downregulation of beta-catenin protein expression in human HCT116 cells at 10 uM after 24 hrs by Western blot method. In kind it is functional, cell-based.
Series [19] has as its system HCT-116. Nature of the series: Downregulation of MMP2 protein expression in human HCT116 cells at 10 uM after 24 hrs by Western blot method. Format: functional, cell-based.

As for `NCCCCNCCCCN1C(=O)c2cccc3cccc1c23`, the IC50 with HCT-116 [1] is > 50 µM; in the series on K562 it was > 50 µM; in the series on HepG2, > 50 µM; in the series on SMMC-7721 it was 43.9 µM.

As to `NCCCNCCCN1C(=O)c2cccc3cccc1c23`, the IC50 was 16.9 µM in the series on HCT-116 [1], 11.5 µM with K562, > 50 µM in the series on HepG2 and 19.4 µM in the series with SMMC-7721.

Consider `CCCCN1C(=O)c2cccc3c(NC(=O)CNCCCNCCCNCCCN)ccc1c23`, for which the IC50 in the series with HCT-116 [1], with K562, in the series with HepG2 and in the series with SMMC-7721 was > 50 µM in each case.

Turning to `CCCCN1C(=O)c2cccc3c(CNCCCNCCCN)ccc1c23`, the IC50 with HCT-116 [1] worked out at 28.3 µM; in the series on K562, 23.5 µM; in the series on HepG2 it was 3.27 µM; in the series with SMMC-7721 it was 5.59 µM.

Turning to `CCCCN1C(=O)c2cccc3c(NC(=O)CNCCCCNCCCCNCCCCN)ccc1c23`, the IC50 with HCT-116 [1] was > 50 µM; in the series on K562 it was > 50 µM; with HepG2, 16.1 µM; in the series on SMMC-7721 it was 18 µM.

With `NCCCNCCCNCCCN1C(=O)c2cccc3cccc1c23`, the IC50 was 12 µM with HCT-116 [1], 26.1 µM in the series with K562, 14.6 µM in the series on HepG2 and 19.4 µM in the series on SMMC-7721.

In the case of `CCCCN1C(=O)c2cccc3c(NC(=O)CNCCCNCCCN)ccc1c23`, the IC50 in the series with HCT-116 [1], in the series on K562, in the series with HepG2 and with SMMC-7721 was > 50 µM in each case.

Take `CCCCN1C(=O)c2cccc3c(NC(=O)CNCCCCN)ccc1c23`: the concentration for half-maximal inhibition (IC50) with HCT-116 [1], in the series with K562, with HepG2 and in the series on SMMC-7721 was > 50 µM throughout.

As to `CCCCN1C(=O)c2cccc3c(NC(=O)CNCCCCNCCCCN)ccc1c23`, the IC50 with HCT-116 [1] was > 50 µM; in the series with K562, > 50 µM; in the series with HepG2 it was 21.9 µM; in the series on SMMC-7721, 23.3 µM.

Consider `CCCCN1C(=O)c2cccc3c(CNCCCCN)ccc1c23`, for which the IC50 with HCT-116 [1] is 16.9 µM; with K562, > 50 µM; in the series on HepG2 it was 10.1 µM; in the series with SMMC-7721, 25.4 µM.

`NCCCNCCCCNCCCN1C(=O)c2cccc3cccc1c23`: the IC50 is 11.1 µM in the series on HCT-116 [1], 28.7 µM with K562, 25.4 µM with HepG2 and 26.1 µM in the series with SMMC-7721.

Regarding `CN(C)CCN1C(=O)c2cccc3cc(N)cc(c23)C1=O` [AMONAFIDE], the IC50 with HCT-116 [1] was 7.18 µM; with K562 it was 20.1 µM; in the series on HepG2, 11.7 µM; in the series with SMMC-7721 it was 10.3 µM; with HCT-116 [2] (HCT-116, 24 h), 8.55 µM; in the series on CT26 [3] (CT26, 24 h), 11.7 µM. Further, the “growth inhibition (GI)” value with HCT-116 [2] and in the series with CT26 [3] was “Dose-dependent effect” each time. Further, the outcome with HCT-116 [4], in the series on CT26 [5], with HCT-116 [18] and in the series on HCT-116 [19] was Active. In addition, the inhibition in vivo at 5 mg/kg with CT26 [6] came to 66%; with CT26 [7], 20%. Also, the Activity entry in the series on Mus musculus [8] is on record as “Non-Toxic”; in the series on Mus musculus [9] it was “Non-Toxic”; in the series with HCT-116 [10] it was 40.53%; with HCT-116 [11], 14.9%; with HCT-116 [12] it was 36.9%; in the series with HCT-116 [13] it was 7.6%. In addition, the Activity in the series on CT26 [14] was 48.49%; in the series with CT26 [15], 27.2%; in the series on CT26 [16], 20.3%; in the series with CT26 [17], 3.92%.
